Test results as given in paper PMC3577938 (Organic & biomolecular chemistry, 2013).

Legend:
[1] = test system: New Zealand White rabbits; assay: Rabbit immunization with bovine α-lactalbumin and antigen-specific ELISA; format: in vivo; details: compared with 8c
human TLR7 or human TLR8 = format: cell-based; details: primary TLR8/TLR7 reporter gene assays, receptor not given
[2] = test system: human peripheral blood mononuclear cells (hPBMC); assay: Cytokine induction in human PBMCs; format: cell-based; details: human PBMCs stimulated 12 h
human TLR8 = biological target: T1, human TLR8 (Homo sapiens, UniProt Q9NR97); assay: Human TLR8-specific reporter gene assay; format: cell-based; details: hTLR8 reporter gene assay
T1 sequence (Q9NR97 27-1041): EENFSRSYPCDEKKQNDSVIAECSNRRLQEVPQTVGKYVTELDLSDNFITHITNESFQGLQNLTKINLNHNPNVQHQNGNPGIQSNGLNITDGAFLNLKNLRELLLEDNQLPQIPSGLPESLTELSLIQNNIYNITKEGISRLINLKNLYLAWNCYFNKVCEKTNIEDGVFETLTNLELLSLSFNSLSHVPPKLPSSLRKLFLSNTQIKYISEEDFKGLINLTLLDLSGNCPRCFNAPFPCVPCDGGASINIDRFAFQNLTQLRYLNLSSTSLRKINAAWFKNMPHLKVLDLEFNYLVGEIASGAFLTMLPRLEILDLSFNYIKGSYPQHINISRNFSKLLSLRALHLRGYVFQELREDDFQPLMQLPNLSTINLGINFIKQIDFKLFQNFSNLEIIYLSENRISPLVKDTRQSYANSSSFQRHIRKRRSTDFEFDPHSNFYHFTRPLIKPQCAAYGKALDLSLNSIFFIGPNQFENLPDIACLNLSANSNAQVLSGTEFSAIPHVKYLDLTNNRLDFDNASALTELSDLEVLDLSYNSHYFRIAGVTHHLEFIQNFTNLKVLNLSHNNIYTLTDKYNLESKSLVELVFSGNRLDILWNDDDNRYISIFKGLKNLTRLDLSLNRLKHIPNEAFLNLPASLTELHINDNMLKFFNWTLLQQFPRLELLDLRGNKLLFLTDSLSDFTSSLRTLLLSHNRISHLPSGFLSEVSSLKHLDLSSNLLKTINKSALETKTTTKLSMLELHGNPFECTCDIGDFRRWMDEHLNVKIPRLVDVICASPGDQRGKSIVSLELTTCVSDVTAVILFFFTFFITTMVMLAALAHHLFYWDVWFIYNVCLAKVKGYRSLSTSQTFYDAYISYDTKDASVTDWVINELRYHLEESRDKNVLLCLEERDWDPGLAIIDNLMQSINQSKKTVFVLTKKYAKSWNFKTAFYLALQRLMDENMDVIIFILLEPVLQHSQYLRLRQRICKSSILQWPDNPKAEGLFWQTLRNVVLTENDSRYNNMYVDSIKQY

Row | SMILES | consistency of adjuvanticity (confidence intervals of antibody titers) [1] | agonistic activity (in words) (human TLR7 or human TLR8) | proinflammatory cytokine induction in hPBMCs (in words) [2] | TLR8-agonistic potency/activity (in words) (human TLR8)
1 | CCCCc1nc2c(N)nc3ccccc3c2s1 [Compound 8d, 2-butylthiazolo[4,5-c]quinolin-4-amine] | greater consistency and uniformity |  |  | 
2 | CCCc1nc2c(NC=O)nc3ccccc3c2s1 [Compound 15d, N-(2-propylthiazolo[4,5-c]quinolin-4-yl)formamide] |  | active | near-complete loss of activity | comparable to that of 8c
